*1 amine or outer side, *2 acyl side, *3 side chain or, on linkers, in order; H or OH if unused. Where a SMILES comes first, the peptide text is derived from it. [ ]: non-standard residue; d: D form. The star is where a group is joined. Isobutyryl = CC(C)C(=O)*; Deg = CCC(N)(CC)C(=O)O; Pentanoyl = CCCCC(=O)*; PhAc = O=C(Cc1ccccc1)*; CO = O=C([*:1])[*:2]; NHBn = c1ccc(CN*)cc1; Bz = O=C(c1ccccc1)*; NHPh = c1ccc(N*)cc1

In this assay the target is WDR5 (Homo sapiens (Human), UniProt P61964). As to the kind of experiment: FP based competitive binding assay to WDR5. Particulars: read-out: Binding Affinity to WDR5 (IC50 ± SD); Table 5 peptidomimetics. On the procedure:
Another aspect of the invention is development of a Fluorescent Polarization (FP) based competitive binding assay. […] Next, the millipolarization (mP) values were measured at different time points in order to determine equilibrium duration and stability.
Accordingly, the optimal protein concentrations for the competitive assay was investigated.
All the FP based experiments were performed in MICROFLUOR® 2 Black, “U” Bottom, 96-well Microtiter Plates (ThermoSci.) and FP was measured as mP units in a microplate reader (Tecan Ultra) with excitation at 485 nm and emission at 530 nm. The Kd of the tracers and the IC50 value of the inhibitors were calculated using GraphPad Prism 4 software.
The binding affinities of the synthetic peptides shown in the study were measured using this competitive binding assay. A pre-incubated complex solution of WDR5Δ23 and the tracer in 120 μl assay buffer were added to dilutions of the test compound in 5 μl DMSO, giving final concentrations of WDR5Δ23 and the tracer of 4 nM and 0.6 nM, respectively. […] The plates were incubated with shaking at room temperature. The mP values were measured after five hours of incubation and Ki values were calculated using the equation described previously(31).
As to `CCCCC(=O)N[C@@H](C)C(=O)N[C@@H](CCCNC(=N)N)C(=O)N[C@@H](C)C(N)=O` [Compound 9D] (Pentanoyl-Ala-Arg-Ala-NH2), the IC50 was above 10 µM.

With `C[C@H](NC(=O)[C@H](CCCNC(=N)N)NC(=O)[C@H](C)NC(=O)C1CC1)C(N)=O` [Compound 9E], the half-inhibitory concentration (IC50) was below 5 µM.

`C[C@H](NC(=O)[C@H](CCCNC(=N)N)NC(=O)[C@H](C)NC(=O)C1CCC1)C(N)=O` [Compound 9F]: the IC50 was below 10 µM.

In the case of `C[C@H](NC(=O)[C@H](CCCNC(=N)N)NC(=O)[C@H](C)NC(=O)CC1CCCC1)C(N)=O` [Compound 9G], the IC50 is above 1 µM.

As to `C[C@H](NC(=O)[C@H](CCCNC(=N)N)NC(=O)[C@H](C)NC(=O)c1ccccc1)C(N)=O` [Compound 9H] (Bz-Ala-Arg-Ala-NH2), the IC50 is above 1 µM.

On to `C[C@H](NC(=O)[C@H](CCCNC(=N)N)NC(=O)[C@H](C)NC(=O)Cc1ccccc1)C(N)=O` [Compound 9I] (PhAc-Ala-Arg-Ala-NH2), for which the IC50 was above 25 µM.

As for `C[C@H](NC(=O)[C@H](CCCNC(=N)N)NC(=O)[C@H](C)NC(=O)N(C)C)C(N)=O` [Compound 9J] ({NMe2-CO}-Ala-Arg-Ala-NH2), the IC50 is below 100 µM.

On to `CNC(=O)N[C@@H](C)C(=O)N[C@@H](CCCNC(=N)N)C(=O)N[C@@H](C)C(N)=O` [Compound 9K] ({NHMe-CO}-Ala-Arg-Ala-NH2), for which the IC50 was below 10 µM.

Take `CC(C)C(=O)NC1(C(=O)N[C@@H](CCCNC(=N)N)C(=O)NC2(C(=O)NC(c3ccccc3)c3ccccc3)CCCC2)CCC1` [Compound 10B]: the IC50 was below 1 µM.

For the compound `CCC(CC)(NC(=O)C(C)C)C(=O)N[C@@H](CCCNC(=N)N)C(=O)NC1(C(N)=O)CCCC1` [Compound 10C], the half-inhibitory concentration (IC50) was below 1 µM.

Take `CCC(CC)(NC(=O)C(C)C)C(=O)N[C@H](CCCNC(=N)N)C(=O)NC1(C(N)=O)CCCC1` [Compound 10D]: the IC50 is below 20 µM.

For `CCC(CC)(NC(=O)c1ccccc1)C(=O)N[C@@H](CCCNC(=N)N)C(=O)NC1(C(N)=O)CCCC1` [Compound 10E], the IC50 is above 1 µM.

Consider `CCC(CC)(NC(=O)c1ccccc1)C(=O)N[C@H](CCCNC(=N)N)C(=O)NC1(C(N)=O)CCCC1` [Compound 10F], for which the IC50 is above 5 µM.

Consider `CCC(CC)(NC(=O)C(C)C)C(=O)N[C@@H](CCCNC(=N)N(C)C)C(=O)NC1(C(N)=O)CCCC1` [Compound 10G], for which the IC50 was above 1 µM.

On to `CCC(CC)(NC(=O)c1ccccc1)C(=O)N[C@@H](CCCNC(=N)N)C(=O)NC1(C(=O)NC(c2ccccc2)c2ccccc2)CCCC1` [Compound 10I], for which the IC50 is above 5 µM.

In the case of `CCC(CC)(NC(=O)c1ccccc1)C(=O)N[C@H](CCCNC(=N)N)C(=O)NC1(C(=O)NC(c2ccccc2)c2ccccc2)CCCC1` [Compound 10J], the concentration for half-maximal inhibition (IC50) is below 10 µM.

In the case of `CC[C@H](C)NC(=O)[C@H](CCCNC(=N)N)NC(=O)C(CC)(CC)NC(=O)C(C)C` [Compound 11A], the IC50 is below 3 µM.

Take `CCC(CC)NC(=O)[C@H](CCCNC(=N)N)NC(=O)C(CC)(CC)NC(=O)C(C)C` [Compound 11B]: the IC50 is below 1 µM.

With `CCC(CC)(NC(=O)C(C)C)C(=O)N[C@@H](CCCNC(=N)N)C(=O)Nc1ccccc1` [Compound 11C] (Isobutyryl-[Deg]-Arg-NHPh), the IC50 is below 10 µM.

On to `CCC(CC)(NC(=O)C(C)C)C(=O)N[C@@H](CCCNC(=N)N)C(=O)NCc1ccccc1` [Compound 11D] (Isobutyryl-[Deg]-Arg-NHBn), for which the half-inhibitory concentration (IC50) was below 30 µM.

Regarding `CCC(CC)(NC(=O)C(C)C)C(=O)N[C@@H](CCCNC(=N)N)C(=O)NC1CCCCC1` [Compound 11E], the IC50 was below 10 µM.

Turning to `CCC(CC)(NC(=O)C(C)C)C(=O)N[C@@H](CCCNC(=N)N)C(=O)N[C@H](C)c1ccccc1` [Compound 11F], the IC50 is below 30 µM.

On to `CCC(CC)(NC(=O)C(C)C)C(=O)N[C@@H](CCCNC(=N)N)C(=O)N[C@@H](C)c1ccccc1` [Compound 11G], for which the IC50 is below 30 µM.

With `CCC(CC)(NC(=O)C(C)C)C(=O)N[C@@H](CCCNC(=N)N)C(=O)NC1CCCC1` [Compound 11I], the IC50 was below 10 µM.

The record behind these values is US9233086B2 (THE REGENTS OF THE UNIVERSITY OF MICHIGAN, priority 2010, dated 2016).
